Data: ChEMBL document CHEMBL1909046, “DrugMatrix in vitro pharmacology data”

What was measured:
Adenosine receptor A2a = Adenosine receptor A2a (Homo sapiens, UniProt P29274); test: DRUGMATRIX: Adenosine A2A radioligand binding (ligand: […]); assay type: cell membranes, HEK293, Membrane; settings: hek293; Not Active = under 50% inhibition at 10 µM
[1] = molecular target: T1, Alpha-2A adrenergic receptor (Homo sapiens, UniProt P08913); assay type: cell membranes, Sf9, Membrane; settings: sf9; further: in other assays of this panel Not Active means under 50% inhibition at 10 µM
T1 sequence (P08913 whole entry): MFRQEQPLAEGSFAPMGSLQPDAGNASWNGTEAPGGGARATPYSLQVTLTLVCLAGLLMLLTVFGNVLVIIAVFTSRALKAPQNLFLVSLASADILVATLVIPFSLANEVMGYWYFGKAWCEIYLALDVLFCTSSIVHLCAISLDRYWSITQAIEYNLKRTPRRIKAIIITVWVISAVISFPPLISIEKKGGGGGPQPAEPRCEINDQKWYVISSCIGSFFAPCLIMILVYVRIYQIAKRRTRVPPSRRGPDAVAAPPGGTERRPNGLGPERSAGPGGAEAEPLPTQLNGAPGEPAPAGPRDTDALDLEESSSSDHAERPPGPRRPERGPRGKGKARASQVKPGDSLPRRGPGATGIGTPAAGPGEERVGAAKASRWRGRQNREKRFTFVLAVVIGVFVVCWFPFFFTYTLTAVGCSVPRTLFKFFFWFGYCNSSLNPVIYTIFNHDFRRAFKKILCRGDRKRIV

[2] = DRUGMATRIX: Leukotriene, BLT (LTB4) radioligand binding (ligand: [3H]LTB4); assay type: cell membranes, Membrane; settings: u-937; Not Active = under 50% inhibition at 10 µM
Substance-P receptor = Substance-P receptor (Homo sapiens, UniProt P25103); assay type: cell membranes, CHO, Membrane; settings: cho; further: in other assays of this panel Not Active means under 50% inhibition at 10 µM
Chain of Substance-P receptor (P25103 whole entry): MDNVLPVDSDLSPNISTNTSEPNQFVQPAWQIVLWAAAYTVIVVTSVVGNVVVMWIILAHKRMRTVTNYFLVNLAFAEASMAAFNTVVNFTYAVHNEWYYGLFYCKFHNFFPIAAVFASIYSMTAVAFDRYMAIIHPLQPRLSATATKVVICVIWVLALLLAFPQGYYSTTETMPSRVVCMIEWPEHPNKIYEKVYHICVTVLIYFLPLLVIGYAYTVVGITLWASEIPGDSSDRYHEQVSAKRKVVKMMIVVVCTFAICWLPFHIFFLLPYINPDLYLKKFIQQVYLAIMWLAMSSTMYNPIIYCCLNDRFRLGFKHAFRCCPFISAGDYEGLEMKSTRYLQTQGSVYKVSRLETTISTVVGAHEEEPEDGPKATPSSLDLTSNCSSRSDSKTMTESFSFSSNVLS

Melanocortin receptor 5 = Melanocortin receptor 5 (Homo sapiens, UniProt P33032); assay type: cell membranes, HEK293, Membrane; settings: hek293; further: in other assays of this panel Not Active means under 50% inhibition at 10 µM
Chain of Melanocortin receptor 5 (P33032 whole entry): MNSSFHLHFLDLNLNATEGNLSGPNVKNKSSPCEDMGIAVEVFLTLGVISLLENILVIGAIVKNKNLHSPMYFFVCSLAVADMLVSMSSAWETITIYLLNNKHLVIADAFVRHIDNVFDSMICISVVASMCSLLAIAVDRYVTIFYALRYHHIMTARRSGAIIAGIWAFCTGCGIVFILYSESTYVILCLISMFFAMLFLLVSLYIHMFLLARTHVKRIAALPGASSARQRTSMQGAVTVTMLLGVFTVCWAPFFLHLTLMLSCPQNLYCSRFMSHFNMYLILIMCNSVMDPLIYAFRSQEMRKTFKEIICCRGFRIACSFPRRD

[3] = DRUGMATRIX: Sodium/nucleoside co-transporter radioligand binding (ligand: nitrobenzylthioinosine); assay type: cell membranes, Cavia porcellus, Dunkin-Hartley, Cerebral cortex, Membrane; settings: Not Active = under 50% inhibition at 10 µM
[4] = molecular target: T2, Alpha-1D adrenergic receptor (Homo sapiens, UniProt P25100); assay type: cell membranes, HEK293, Membrane; settings: hek293; further: in other assays of this panel Not Active means under 50% inhibition at 10 µM
T2 sequence (P25100 whole entry): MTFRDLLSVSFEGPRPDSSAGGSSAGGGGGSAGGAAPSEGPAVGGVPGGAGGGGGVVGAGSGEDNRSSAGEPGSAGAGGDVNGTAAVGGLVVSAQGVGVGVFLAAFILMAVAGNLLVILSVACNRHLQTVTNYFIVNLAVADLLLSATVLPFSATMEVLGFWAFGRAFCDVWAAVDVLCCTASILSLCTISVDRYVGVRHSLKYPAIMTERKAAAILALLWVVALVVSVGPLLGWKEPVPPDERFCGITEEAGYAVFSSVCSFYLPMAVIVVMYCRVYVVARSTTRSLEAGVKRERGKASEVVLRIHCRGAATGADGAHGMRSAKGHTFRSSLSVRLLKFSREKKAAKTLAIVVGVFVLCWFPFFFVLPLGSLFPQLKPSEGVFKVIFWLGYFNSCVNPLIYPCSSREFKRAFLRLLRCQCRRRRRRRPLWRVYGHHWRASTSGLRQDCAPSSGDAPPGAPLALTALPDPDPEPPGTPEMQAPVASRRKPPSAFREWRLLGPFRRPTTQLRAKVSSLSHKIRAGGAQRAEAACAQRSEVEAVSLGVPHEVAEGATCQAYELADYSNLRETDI

Adenosine receptor A3 = molecular target: T3, Adenosine receptor A3 (Homo sapiens, UniProt P0DMS8); assay type: cell membranes, CHO-K1, Membrane; settings: cho-k1
T3 sequence (P0DMS8 whole entry): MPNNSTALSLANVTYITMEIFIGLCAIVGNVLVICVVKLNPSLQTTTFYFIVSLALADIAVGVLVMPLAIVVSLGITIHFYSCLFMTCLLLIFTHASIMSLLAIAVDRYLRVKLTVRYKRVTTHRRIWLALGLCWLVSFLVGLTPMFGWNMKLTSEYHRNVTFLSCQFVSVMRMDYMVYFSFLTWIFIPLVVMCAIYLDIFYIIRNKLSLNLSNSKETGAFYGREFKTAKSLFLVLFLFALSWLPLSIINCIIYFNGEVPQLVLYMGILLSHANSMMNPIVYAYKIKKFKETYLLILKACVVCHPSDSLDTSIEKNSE

[5] = molecular target: T4, Muscarinic acetylcholine receptor M2 (Homo sapiens, UniProt P08172); assay type: cell membranes, CHO-K1, Membrane; settings: cho-k1; further: in other assays of this panel Not Active means under 50% inhibition at 10 µM
T4 sequence (P08172 whole entry): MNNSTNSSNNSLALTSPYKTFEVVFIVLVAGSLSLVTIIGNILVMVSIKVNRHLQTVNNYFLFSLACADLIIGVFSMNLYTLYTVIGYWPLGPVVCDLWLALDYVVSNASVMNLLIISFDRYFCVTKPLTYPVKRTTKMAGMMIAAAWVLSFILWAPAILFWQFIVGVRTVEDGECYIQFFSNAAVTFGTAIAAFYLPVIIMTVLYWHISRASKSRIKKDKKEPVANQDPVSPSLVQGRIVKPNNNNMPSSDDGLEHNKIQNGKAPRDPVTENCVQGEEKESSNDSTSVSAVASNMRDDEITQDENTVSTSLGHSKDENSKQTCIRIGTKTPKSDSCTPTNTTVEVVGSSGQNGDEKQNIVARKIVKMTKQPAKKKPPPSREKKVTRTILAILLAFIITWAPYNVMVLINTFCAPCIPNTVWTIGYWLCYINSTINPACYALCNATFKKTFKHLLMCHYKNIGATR

[6] = DRUGMATRIX: Glutamate, NMDA, Agonism radioligand binding (ligand: [3H] CGP-39653); assay type: cell membranes, Rattus norvegicus, Wistar, Cerebral cortex, Membrane; settings: Not Active = under 50% inhibition at 10 µM
[7] = DRUGMATRIX: Atrial Natriuretic Factor (ANF) radioligand binding (ligand: [125I] ANF (rat)); assay type: cell membranes, Cavia porcellus, Dunkin-Hartley, Adrenal gland, Membrane; settings: Not Active = under 50% inhibition at 10 µM
[8] = molecular target: Aldo-keto reductase family 1 member B1 (Rattus norvegicus, UniProt P07943); assay type: tissue-based, Lens of camera-type eye

Chain of Adenosine receptor A2a (P29274 whole entry): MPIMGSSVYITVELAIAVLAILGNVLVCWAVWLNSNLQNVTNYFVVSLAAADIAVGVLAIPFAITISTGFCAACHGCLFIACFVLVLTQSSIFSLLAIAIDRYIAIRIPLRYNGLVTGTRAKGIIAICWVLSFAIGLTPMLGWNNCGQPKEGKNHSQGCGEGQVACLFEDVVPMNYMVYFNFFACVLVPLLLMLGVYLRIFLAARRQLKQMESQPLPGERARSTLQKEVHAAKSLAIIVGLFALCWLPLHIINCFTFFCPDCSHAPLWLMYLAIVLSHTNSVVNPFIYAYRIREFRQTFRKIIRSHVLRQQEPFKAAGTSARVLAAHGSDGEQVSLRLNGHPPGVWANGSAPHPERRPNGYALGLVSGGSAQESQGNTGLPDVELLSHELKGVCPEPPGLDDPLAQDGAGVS

O=C1OC2(c3ccc(O)cc3Oc3cc(O)ccc32)c2ccccc21 [FLUORESCEIN]
Not Active: IC50 (Adenosine receptor A2a) | IC50 [1] | IC50 [2] | Ki [2] | IC50 (Substance-P receptor) | IC50 (Melanocortin receptor 5) | IC50 [3] | Ki [3] | IC50 [4] | IC50 (Adenosine receptor A3) | IC50 [5] | IC50 [6] | Ki [6] | IC50 [7] | Ki [7] | IC50 [8]

CC(=O)[C@@]1(O)CC[C@H]2[C@@H]3C[C@H](C)C4=CC(=O)C=C[C@]4(C)[C@@]3(F)[C@@H](O)C[C@@]21C [FLUOROMETHOLONE]
Not Active: IC50 (Adenosine receptor A2a) | IC50 [1] | IC50 [2] | Ki [2] | IC50 (Substance-P receptor) | IC50 (Melanocortin receptor 5) | IC50 [3] | Ki [3] | IC50 [4] | IC50 (Adenosine receptor A3) | IC50 [5] | IC50 [6] | Ki [6] | IC50 [7] | Ki [7] | IC50 [8]

O=c1[nH]cc(F)c(=O)[nH]1 [FLUOROURACIL]
Not Active: IC50 (Adenosine receptor A2a) | IC50 [1] | IC50 [2] | Ki [2] | IC50 (Substance-P receptor) | IC50 (Melanocortin receptor 5) | IC50 [3] | Ki [3] | IC50 [4] | IC50 (Adenosine receptor A3) | IC50 [5] | IC50 [6] | Ki [6] | IC50 [7] | Ki [7] | IC50 [8]

CC(C)n1c(/C=C/C(O)CC(O)CC(=O)O)c(-c2ccc(F)cc2)c2ccccc21 (stereo unspecified) [FLUVASTATIN]
Not Active: IC50 (Adenosine receptor A2a) | IC50 [1] | IC50 [2] | Ki [2] | IC50 (Substance-P receptor) | IC50 (Melanocortin receptor 5) | IC50 [3] | Ki [3] | IC50 [4] | IC50 (Adenosine receptor A3) | IC50 [5] | IC50 [6] | Ki [6] | IC50 [7] | Ki [7] | IC50 [8]

O=C1OCCN1/N=C/c1ccc([N+](=O)[O-])o1 [FURAZOLIDONE]
Not Active: IC50 (Adenosine receptor A2a) | IC50 [1] | IC50 [2] | Ki [2] | IC50 (Substance-P receptor) | IC50 (Melanocortin receptor 5) | IC50 [3] | Ki [3] | IC50 [4] | IC50 (Adenosine receptor A3) | IC50 [5] | IC50 [6] | Ki [6] | IC50 [7] | Ki [7] | IC50 [8]

NCC1(CC(=O)O)CCCCC1 [GABAPENTIN]
Not Active: IC50 (Adenosine receptor A2a) | IC50 [1] | IC50 [2] | Ki [2] | IC50 (Substance-P receptor) | IC50 (Melanocortin receptor 5) | IC50 [3] | Ki [3] | IC50 [4] | IC50 (Adenosine receptor A3) | IC50 [5] | IC50 [6] | Ki [6] | IC50 [7] | Ki [7] | IC50 [8]
